Source: ChEMBL document CHEMBL5137037, “Phage Display Selected Cyclic Peptide Inhibitors of Kallikrein-Related Peptidases 5 and 7 and Their In Vivo Delivery to the Skin” (J Med Chem, 2022)
Numbered stars: 1 amine (or outer) side, 2 acyl side, 3 side chain; on linkers, the order of the positions; unused ones are H or OH. Bridge positions count the residues as written; N and C are the ends. Peptide text beside a SMILES is read from it. CH2COCH2 = O=C(C[*:1])C[*:2]

Tests used:
Albumin = Albumin (Homo sapiens, UniProt P02768); test: Binding affinity to human serum albumin by fluorescence polarization assay
Chain of Albumin (P02768 whole entry): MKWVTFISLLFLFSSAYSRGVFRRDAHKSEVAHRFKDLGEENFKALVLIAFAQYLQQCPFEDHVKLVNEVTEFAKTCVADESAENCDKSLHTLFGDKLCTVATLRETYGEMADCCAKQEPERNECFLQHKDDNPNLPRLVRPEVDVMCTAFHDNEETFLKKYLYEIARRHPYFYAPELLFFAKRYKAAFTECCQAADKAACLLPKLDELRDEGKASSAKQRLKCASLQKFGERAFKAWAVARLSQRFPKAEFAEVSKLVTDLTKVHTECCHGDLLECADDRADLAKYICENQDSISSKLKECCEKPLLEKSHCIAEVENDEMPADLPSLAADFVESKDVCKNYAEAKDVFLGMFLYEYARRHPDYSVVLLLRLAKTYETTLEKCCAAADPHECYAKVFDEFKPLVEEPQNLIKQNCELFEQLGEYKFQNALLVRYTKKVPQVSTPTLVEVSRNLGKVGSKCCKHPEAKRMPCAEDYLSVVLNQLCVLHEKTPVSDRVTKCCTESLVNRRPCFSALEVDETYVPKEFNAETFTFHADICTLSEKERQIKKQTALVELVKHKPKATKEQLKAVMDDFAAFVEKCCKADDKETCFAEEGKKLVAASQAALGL

[1] = Stability of the compound in human plasma assessed as half life […] by LC-MS analysis; format: ADME, cell-free
Kallikrein-7 = Kallikrein-7 (Homo sapiens, UniProt P49862); test: Inhibition of C-terminal poly-His-tagged human recombinant KLK7 (30 to 253 residues) transfected in CHO cells assessed as inhibition constant using KHLY-pNA as fluorogenic substrate incubated for 30 mins by fluorescence plate reader assay; format: cell-based
Chain of Kallikrein-7 (P49862 whole entry, the tested form may be a part): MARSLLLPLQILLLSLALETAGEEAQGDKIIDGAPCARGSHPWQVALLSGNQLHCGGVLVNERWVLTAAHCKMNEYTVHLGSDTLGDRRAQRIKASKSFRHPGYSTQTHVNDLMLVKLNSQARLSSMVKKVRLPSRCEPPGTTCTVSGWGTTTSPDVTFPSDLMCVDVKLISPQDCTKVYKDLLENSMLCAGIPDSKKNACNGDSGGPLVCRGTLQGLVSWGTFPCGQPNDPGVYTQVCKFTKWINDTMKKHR

Kallikrein-5 = molecular target: T1, Kallikrein-5 (Homo sapiens, UniProt Q9Y337); test: Inhibition of C-terminal poly-His-tagged human recombinant KLK5 (30 to 293 residues) transfected in CHO cells assessed as inhibition constant using Boc-VPR-AMC as fluorogenic substrate incubated for 30 mins by fluorescence plate reader assay; format: cell-based
T1 sequence (Q9Y337 whole entry): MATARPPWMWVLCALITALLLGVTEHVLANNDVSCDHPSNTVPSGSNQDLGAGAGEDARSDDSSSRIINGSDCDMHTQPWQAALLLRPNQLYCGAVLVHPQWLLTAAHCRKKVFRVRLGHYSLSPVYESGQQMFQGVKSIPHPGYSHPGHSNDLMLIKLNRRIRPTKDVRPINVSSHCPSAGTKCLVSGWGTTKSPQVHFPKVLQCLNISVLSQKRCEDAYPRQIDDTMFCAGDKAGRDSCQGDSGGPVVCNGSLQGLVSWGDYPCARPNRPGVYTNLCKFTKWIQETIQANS

Row | SMILES | Kd (Albumin) [nM] | half-life [1] [h] | Ki (Kallikrein-5) [nM] | other results
1 | CC(C)C[C@@H]1NC(=O)[C@H](Cc2ccc(O)cc2)NC(=O)[C@H](CC(C)C)NC(=O)[C@@H](NC(=O)[C@@H]2CCCN2)CSCC(=O)CSC[C@@H](C(=O)N[C@@H](CO)C(=O)O)NC(=O)[C@H](CCCNC(=N)N)NC(=O)[C@H](C)NC1=O (H-PCLYLARCS-OH; linker 2-8 via CH2COCH2) | 39 | < 0.0833 |  | Ki (Kallikrein-7; cho): 16 nM
2 | C[C@@H](O)[C@@H]1NC(=O)[C@@H](NC(=O)CN)CSCC(=O)CSC[C@@H](C(=O)O)NC(=O)[C@@H]2CCCN2C(=O)[C@H](Cc2ccc(O)cc2)NC(=O)[C@H](CCC(N)=O)NC(=O)[C@H](CCCNC(=N)N)NC1=O (H-GCTRQYPC-OH; linker 2-8 via CH2COCH2) | 39 | < 0.0833 | 2.2 | 
3 | CCCCCCCCCCCCCCCC(=O)NCCCC[C@H](NC(=O)[C@H](CCC(=O)O)NC(=O)[C@H](Cc1ccc(O)cc1)NC(=O)[C@H](CCC(=O)O)NC(=O)COCCOCCNC(=O)c1ccc(-c2c3ccc(=O)cc-3oc3cc(O)ccc23)c(C(=O)O)c1)C(=O)N[C@@H](CCC(=O)O)C(=O)N[C@@H](Cc1ccc(O)cc1)C(=O)N[C@@H](CCC(=O)O)C(=O)NCCOCCOCC(=O)NCCCC[C@H](NC(=O)CNC(=O)[C@@H]1CSCC(=O)CSC[C@H](NC(=O)[C@@H]2CCCN2)C(=O)N[C@@H](CC(C)C)C(=O)N[C@@H](Cc2ccc(O)cc2)C(=O)N[C@@H](CCCC)C(=O)N[C@@H](C)C(=O)N[C@@H](CCCNC(N)=O)C(=O)N1)C(=O)NCC(N)=O |  | > 96 |  | 
4 | CSCC[C@H](N)C(=O)N[C@H]1CSCC(=O)CSC[C@@H](C(=O)N[C@H]2CSCC(=O)CSC[C@@H](C(=O)N3CCC[C@H]3C(=O)O)NC(=O)[C@H]([C@@H](C)O)NC(=O)[C@H](CCCNC(=N)N)NC(=O)[C@H](CCC(N)=O)NC(=O)[C@@H]3CCCN3C2=O)NC(=O)[C@H](CC(C)C)NC(=O)[C@H](CO)NC(=O)[C@@H]2CCCN2C(=O)[C@H](CC(=O)O)NC(=O)[C@H](Cc2c[nH]c3ccccc23)NC(=O)[C@H](CCC(N)=O)NC(=O)[C@H](CCCNC(=N)N)NC(=O)[C@H](CO)NC1=O |  |  | 24 | 
5 | CC(C)[C@H](NC(=O)[C@H]1CSCc2cccc(n2)CSC[C@@H](NC(=O)[C@H](CO)NC(=O)CNC(=O)[C@@H]2CCCN2C(=O)[C@@H](NC(=O)[C@H](CO)NC(=O)[C@H](CC(=O)O)NC(=O)[C@@H]2CSCc3cccc(n3)CSC[C@@H](NC(=O)CN)C(=O)N[C@@H]([C@@H](C)O)C(=O)N[C@@H](CCCNC(=N)N)C(=O)N[C@@H](CCC(N)=O)C(=O)N[C@@H](Cc3c[nH]c4ccccc34)C(=O)N3CCC[C@H]3C(=O)N2)C(C)C)C(=O)N[C@@H]([C@@H](C)O)C(=O)N1)C(=O)O |  |  |  | Ki (Kallikrein-5; cho): 2 nM
6 | C[C@@H](O)[C@@H]1NC(=O)[C@@H](NC(=O)CN)CSCC(=O)CSC[C@@H](C(=O)O)NC(=O)[C@@H]2CCCN2C(=O)[C@H](Cc2c[nH]c3ccccc23)NC(=O)[C@H](CCC(N)=O)NC(=O)[C@H](CCCNC(=N)N)NC1=O |  |  | 3.6 | 
7 | CC(C)C[C@@H]1NC(=O)[C@@H](NC(=O)[C@H](CCC(N)=O)NC(=O)[C@@H]2CCCN2C(=O)[C@H](CC(N)=O)NC(=O)[C@H](C)NC(=O)[C@@H]2CSCc3cccc(n3)CSC[C@H](NC(=O)[C@H](C)N)C(=O)N[C@@H]([C@@H](C)O)C(=O)N[C@@H](CCCNC(=N)N)C(=O)N[C@@H](CCC(=O)O)C(=O)N[C@@H](Cc3ccc(O)cc3)C(=O)N[C@@H](CC(N)=O)C(=O)N3CCC[C@H]3C(=O)N[C@@H](CCC(N)=O)C(=O)N2)CSCc2cccc(n2)CSC[C@@H](C(=O)N[C@@H](Cc2cnc[nH]2)C(=O)O)NC1=O |  |  | 6.1 | 
8 | CCCCCCCCCCCCCCCC(=O)NCCCC[C@H](NC(=O)[C@H](CCC(=O)O)NC(=O)[C@H](Cc1ccc(O)cc1)NC(=O)[C@H](CCC(=O)O)NC(=O)COCCOCCNC(=O)c1ccc(-c2c3ccc(=O)cc-3oc3cc(O)ccc23)c(C(=O)O)c1)C(=O)N[C@@H](CCC(=O)O)C(=O)N[C@@H](Cc1ccc(O)cc1)C(=O)N[C@@H](CCC(=O)O)C(=O)NCCOCCOCC(=O)NCCCC[C@H](NC(=O)CNC(=O)[C@@H]1CSCC(=O)CSC[C@H](NC(=O)[C@@H]2CCCN2)C(=O)N[C@@H](CC(C)C)C(=O)N[C@@H](Cc2ccc(O)cc2)C(=O)N[C@@H](CCCC)C(=O)N[C@@H](C)C(=O)N[C@@H](CCCCNC(=N)N)C(=O)N1)C(=O)NCC(N)=O |  | 4 |  | 
9 | CC(C)C[C@@H]1NC(=O)[C@@H](NC(=O)[C@H](CCC(N)=O)NC(=O)[C@@H]2CCCN2C(=O)[C@H](CC(N)=O)NC(=O)[C@H](C)NC(=O)[C@@H]2CSCC(=O)CSC[C@H](NC(=O)[C@H](C)N)C(=O)N[C@@H]([C@@H](C)O)C(=O)N[C@@H](CCCNC(=N)N)C(=O)N[C@@H](CCC(=O)O)C(=O)N[C@@H](Cc3ccc(O)cc3)C(=O)N[C@@H](CC(N)=O)C(=O)N3CCC[C@H]3C(=O)N[C@@H](CCC(N)=O)C(=O)N2)CSCC(=O)CSC[C@@H](C(=O)N[C@@H](Cc2cnc[nH]2)C(=O)O)NC1=O |  |  | 28 | 
10 | C[C@@H](O)[C@@H]1NC(=O)[C@@H](NC(=O)CN)CSCC(=O)CSC[C@@H](C(=O)O)NC(=O)[C@@H]2CCCN2C(=O)[C@H](Cc2ccc(O)cc2)NC(=O)[C@H](CCC(=O)O)NC(=O)[C@H](CCCNC(=N)N)NC1=O |  |  | 3.2 | 
11 | CCCCCCCCCCCCCCCC(=O)NCCCC[C@H](NC(=O)[C@H](CCC(=O)O)NC(=O)[C@H](Cc1ccc(O)cc1)NC(=O)[C@H](CCC(=O)O)NC(=O)COCCOCCNC(=O)c1ccc(-c2c3ccc(=O)cc-3oc3cc(O)ccc23)c(C(=O)O)c1)C(=O)N[C@@H](CCC(=O)O)C(=O)N[C@@H](Cc1ccc(O)cc1)C(=O)N[C@@H](CCC(=O)O)C(=O)NCCOCCOCC(=O)NCCCC[C@H](NC(=O)CNC(=O)[C@@H]1CSCC(=O)CSC[C@H](NC(=O)[C@@H]2CCCN2)C(=O)N[C@@H](CC(C)C)C(=O)N[C@@H](Cc2ccc(O)cc2)C(=O)N[C@@H](CCCC)C(=O)N[C@@H](C)C(=O)NCC(=O)N1)C(=O)NCC(N)=O |  | > 96 |  | 
12 | CCCCCCCCCCCCCCCC(=O)NCCCC[C@H](NC(=O)[C@H](CCC(=O)O)NC(=O)[C@H](Cc1ccc(O)cc1)NC(=O)[C@H](CCC(=O)O)NC(=O)COCCOCCNC(=O)c1ccc(-c2c3ccc(=O)cc-3oc3cc(O)ccc23)c(C(=O)O)c1)C(=O)N[C@@H](CCC(=O)O)C(=O)N[C@@H](Cc1ccc(O)cc1)C(=O)N[C@@H](CCC(=O)O)C(=O)NCCOCCOCC(=O)N1CCC[C@H]1C(=O)N[C@H]1CSCC(=O)CSC[C@@H](C(=O)N[C@@H](CO)C(N)=O)NC(=O)[C@H](CCCNC(=N)N)NC(=O)[C@H](C)NC(=O)[C@H](CC(C)C)NC(=O)[C@H](Cc2ccc(O)cc2)NC(=O)[C@H](CC(C)C)NC1=O | 168 |  |  | Ki (Kallikrein-7): 106 nM
13 | CC(C)[C@H](NC(=O)[C@H]1CSCc2cccc(n2)CSC[C@@H](NC(=O)[C@H](CO)NC(=O)CNC(=O)[C@@H]2CCCN2C(=O)[C@@H](NC(=O)[C@H](CO)NC(=O)[C@H](CC(=O)O)NC(=O)[C@@H]2CSCc3cccc(n3)CSC[C@H](NC(=O)CN)C(=O)N[C@@H]([C@@H](C)O)C(=O)N[C@@H](CCCNC(=N)N)C(=O)N[C@@H](CCC(N)=O)C(=O)N[C@@H](Cc3c[nH]c4ccccc34)C(=O)N3CCC[C@H]3C(=O)N2)C(C)C)C(=O)N[C@@H]([C@@H](C)O)C(=O)N1)C(=O)O |  |  |  | Ki (Kallikrein-5; cho): 2.7 nM
14 | CCCCCCCCCCCCCCCC(=O)NCCCC[C@H](NC(=O)[C@H](CCC(=O)O)NC(=O)[C@H](Cc1ccc(O)cc1)NC(=O)[C@H](CCC(=O)O)NC(=O)COCCOCCNC(=O)c1ccc(-c2c3ccc(=O)cc-3oc3cc(O)ccc23)c(C(=O)O)c1)C(=O)N[C@@H](CCC(=O)O)C(=O)N[C@@H](Cc1ccc(O)cc1)C(=O)N[C@@H](CCC(=O)O)C(=O)NCCOCCOCC(=O)N[C@H]1CSCC(=O)CSC[C@@H](C(N)=O)NC(=O)[C@@H]2CCCN2C(=O)[C@H](Cc2ccc(O)cc2)NC(=O)[C@H](CCC(N)=O)NC(=O)[C@H](CCCNC(=N)N)NC(=O)[C@H]([C@@H](C)O)NC1=O | 118 |  | 23 | 
15 | CCCCCCCCCCCCCCCC(=O)NCCCC[C@H](NC(=O)[C@H](CCC(=O)O)NC(=O)[C@H](Cc1ccc(O)cc1)NC(=O)[C@H](CCC(=O)O)NC(=O)COCCOCCNC(=O)c1ccc(-c2c3ccc(=O)cc-3oc3cc(O)ccc23)c(C(=O)O)c1)C(=O)N[C@@H](CCC(=O)O)C(=O)N[C@@H](Cc1ccc(O)cc1)C(=O)N[C@@H](CCC(=O)O)C(=O)NCCOCCOCC(=O)NCCCC[C@H](NC(=O)CNC(=O)[C@@H]1CSCC(=O)CSC[C@H](NC(=O)[C@@H]2CCCN2)C(=O)N[C@@H](CC(C)C)C(=O)N[C@@H](Cc2ccc(O)cc2)C(=O)N[C@@H](CC(C)C)C(=O)N[C@@H](C)C(=O)N[C@@H](CCCNC(=N)N)C(=O)N1)C(=O)NCC(N)=O | 164 | 0.4 |  | Ki (Kallikrein-7): 31 nM
16 | C[C@@H](O)[C@@H]1NC(=O)[C@@H](NC(=O)CN)CSCC(=O)CSC[C@@H](C(=O)O)NC(=O)[C@@H]2CCCN2C(=O)[C@H](Cc2c[nH]c3ccccc23)NC(=O)[C@H](CCC(=O)O)NC(=O)[C@H](CCCNC(=N)N)NC1=O |  |  | 5.1 | 
